The subject of assay [1] is AsPC-1 (G12D). In words: In vitro cell proliferation inhibition test (CellTiter-Glo Luminescent Cell Viability Assay). It is filed as cell-based. The note with it: AsPC-1 cell line, Pancreas, KRAS (p.G12D), cells and compounds co-incubated 72 hours. An excerpt: (§1) Due to the diversity of RAS mutations and in order to evaluate the activity of compounds in different RAS mutant cell lines, we selected KRAS^WT, KRAS^G12C, KRAS^G12D), KRAS^G12V and BRAF mutant cell lines (see the table below) for in vitro activity evaluation and screening of compounds .
(§2) Experimental protocol: CellTiter-Glo® Cell Luminescent Viability Assay (Promega)
(§3) According to the doubling time of different cell lines, different numbers of cells (1000-5000 cells/well) were inoculated into 96-well plates containing 180 µl of the corresponding medium, and cultured overnight in a 37°C cell incubator containing 5% CO2. On the second day, the compound to be tested was pre-diluted 3-fold with the medium, the highest concentration was 100 µM, and there were 10 concentration gradients in total; then 20 µl of the medium containing different concentrations of the compound was added to the cells in the 96-well plate to ensure the final concentration of the compound to be up to 10 µM, with 10 concentration gradients of 3-fold dilutions. After co-incubating cells and compounds for 72 hours, the 96-well plate was taken out of the incubator, placed at room temperature for 30 minutes, and then 25 µl CellTiter-Glo® Reagent was added to each well to mix well, and incubated at room temperature for 10 minutes, and then 100 µl of the sample was transferred to a white 96-well plate (OptiPlateTM-96, PerkinElmer), the […] signal value was read using a multi-functional microplate reader (SpectraMax® i3x, Molecular devices). Subsequently, the signal value was standardized, and the four-parameter fitting regression equation was used for curve fitting to calculate the half maximal inhibitory concentration (IC50) of the compound on the cell line. Table 3: Antiproliferative activity of compounds of the present invention on KRAS cell mutants

In assay [2] the test system is SW480 (G12V). The assay is described as above. It is filed as cell-based. The note with it: SW480 cell line, Large intestine, Colon, KRAS (p.G12V), cells and compounds co-incubated 72 hours.
Source text: as §1, §2, §3

With `CCn1c(-c2cc(C#CCN3CCOCC3)cnc2[C@H](C)OC)c2c3cc(ccc31)-c1csc(n1)C[C@H](NC(=O)[C@H]1C[C@@H]1C)C(=O)N1CCC[C@H](N1)C(=O)OCC(C)(C)C2` (single isomer, unassigned) [Example 1], the IC50 (usually the midpoint of a concentration-inhibition curve) in assay [1] worked out at 0.92 nM; in assay [1] (listed as 1') it was 582 nM; in assay [2], 1.02 nM; in assay [2] (listed as 1') it was 343 nM.

In the case of `CO[C@@H](C)c1ncc(C#CCN2CCOCC2)cc1-c1c2c3cc(ccc3n1CC(F)(F)F)-c1csc(n1)C[C@H](NC(=O)[C@H]1C[C@@H]1C)C(=O)N1CCC[C@H](N1)C(=O)OCC(C)(C)C2` (single isomer, unassigned) [Example 3], the IC50 in assay [1] was 3.5 nM; in assay [1] (listed as 3') it was 292 nM; in assay [2] it was 2.2 nM; in assay [2] (listed as 3'), 2060 nM.

`CCn1c(-c2cc(C#CCN3CCO[C@@H](C)C3)cnc2[C@H](C)OC)c2c3cc(ccc31)-c1csc(n1)C[C@H](NC(=O)[C@H]1C[C@@H]1C)C(=O)N1CCC[C@H](N1)C(=O)OCC(C)(C)C2` (single isomer, unassigned) [Example 4]: the IC50 in assay [1] stood at 4.9 nM; in assay [1] (listed as 4'), 523 nM; in assay [2], 2.9 nM; in assay [2] (listed as 4') it was 813 nM.

With `CCn1c(-c2cc(C#CCCN3CCOCC3)cnc2[C@H](C)OC)c2c3cc(ccc31)-c1csc(n1)C[C@H](NC(=O)[C@H]1C[C@@H]1C)C(=O)N1CCC[C@H](N1)C(=O)OCC(C)(C)C2` (single isomer, unassigned) [Example 5], the IC50 in assay [1] was 3220 nM; in assay [2], 24.6 nM; in assay [2] (listed as 5'), 2020 nM.

Turning to `CCn1c(-c2cc(C#CC3CN(C)CCO3)cnc2C(C)OC)c2c3cc(ccc31)-c1csc(n1)CC(NC(=O)C1CC1C)C(=O)N1CCCC(N1)C(=O)OCC(C)(C)C2` (single isomer, unassigned) [Example 6], the IC50 was found to be 14 nM in assay [1], 3960 nM in assay [1] (listed as 6'), 18.5 nM in assay [2] and 1830 nM in assay [2] (listed as 6').

As to `CCn1c(-c2cc(C#CC3CN(C)CCO3)cnc2C(C)OC)c2c3cc(ccc31)-c1csc(n1)CC(NC(=O)C1CC1C)C(=O)N1CCCC(N1)C(=O)OCC(C)(C)C2` (single isomer, unassigned) [Example 8], the IC50 in assay [1] is 17.9 nM; in assay [1] (listed as 8'), 3870 nM; in assay [2], 18.9 nM; in assay [2] (listed as 8') it was 2030 nM.

On to `CCn1c(-c2cc(C#CCN3C[C@@H](C)O[C@@H](C)C3)cnc2[C@H](C)OC)c2c3cc(ccc31)-c1csc(n1)C[C@H](NC(=O)[C@H]1C[C@@H]1C)C(=O)N1CCC[C@H](N1)C(=O)OCC(C)(C)C2` (single isomer, unassigned) [Example 9], for which the IC50 in assay [1] turned out to be 4.5 nM; in assay [1] (listed as 9'), 1360 nM; in assay [2], 31.6 nM; in assay [2] (listed as 9'), 963 nM.

With `CCn1c(-c2cc(C#CC3CCN(C)C3)cnc2C(C)OC)c2c3cc(ccc31)-c1csc(n1)CC(NC(=O)C1C(C)C1C)C(=O)N1CCCC(N1)C(=O)OCC(C)(C)C2` (single isomer, unassigned) [Example 18], the IC50 in assay [1] was 3.4 nM; in assay [2] it was 0.42 nM.

Consider `CCn1c(-c2cc(C#CC3(C)CN(C)C3)cnc2C(C)OC)c2c3cc(ccc31)-c1csc(n1)CC(NC(=O)C1C(C)C1C)C(=O)N1CCCC(N1)C(=O)OCC(C)(C)C2` (single isomer, unassigned) [Example 19], for which the IC50 in assay [1] was 2.2 nM; in assay [2], 1.5 nM.

Consider `CCn1c(-c2cc(C#CC3CCCN3C)cnc2C(C)OC)c2c3cc(ccc31)-c1csc(n1)CC(NC(=O)C1C(C)C1C)C(=O)N1CCCC(N1)C(=O)OCC(C)(C)C2` [Example 11, (1r,2R,3S)-N-((63S,4S,Z)-11-ethyl-12-(2-((S)-1-methoxyethyl)-5-(((S)-1-methylpyrrolidin-2-yl)ethynyl)pyridin-3-yl)-10,10-dimethyl-5,7-dioxo-61,62,63,64,65,66-hexahydro-11H-8-oxa-2(4,2)-thiazola-1(5,3)-indola-6(1,3)-pyridazinacyclonecaphane-4-yl)-2,3-dimethylcyclopropane-1-carboxamide], for which, in assay [1], the IC50 is 1.7 nM.

The values above are taken from patent publication EP4582426A1, “PAN-KRAS INHIBITOR COMPOUND” (Adlai Nortye Biopharma Co., Ltd., priority 2022, dated 2024).
